In patent US20130243707A1, “TOPICAL COMPOSITIONS” (priority 2006, published 2013):

How the values were obtained:
[1] = system: proliferation of lymphocytes in the draining lymph nodes; test: Local lymph node stimulation assay; format: in vivo, CBA/J female mice; details: positive control
Procedure: Compositions of Example 39 are subjected to a local lymph node stimulation assay in CBA/J female mice to determine if present compositions produce a hypersensitivity response as measured by the proliferation of lymphocytes in the draining lymph nodes. Ten groups of 5 mice each are used. Five groups are treated on the dorsal surface of both ears once per day for 3 days the compositions or with a positive control (35% hexylcinnamaldehyde (HCA)). On Day 6, the mice are injected intravenously (IV) with 20 μCi of ^3H-thymidine in sterile saline. Five hours later the mice are euthanized and the draining auricular lymph nodes are removed. […] A three-fold or greater increase in proliferative activity relative to the concurrent vehicle-treated control is considered a positive response. […] Since both of these stimulation indices are greater than 3, the positive controls indeed produced a positive response.

[2] = Solubility of Drugs in single solvent alcohols; format: physicochemical
Procedure: Briefly, the indicated NSAID was weighed and added to a beaker. To each beaker, incremental amounts of the indicated solvent was weighed and added. The beakers were sealed with aluminum foil and placed at room temperature or in a 35 C water bath for 20-30 minutes. They beakers were shaken frequently to mix the contents. After 20-30 minutes the solvent alcohols were examined. If a single phasic solution was not yet achieved, an additional aliquot of the solvent was added and the cycle was repeated until complete solvation had occurred.

[3] = Prodrug (ester) formation upon storage, HPLC; format: physicochemical; details: for rate of prodrug generation: 2% propylene glycol, linear for at least the first 26 days
Procedure: Next, the peak was characterized in terms of retention position, UV spectrum and mass spectroscopy response. In addition, isolates of the peak were collected from the chromatograph system employed for liquid chromatography-mass spectroscopy. […] The solution was centrifuged and the supernatant collected for analysis. Chromatography was conducted as follows: • Pumps: Hewlett Packard Model 1100 Binary Systems • Solvent A: Water • Solvent B: Acetonitrile • Gradient: […] Sequential detection was performed by UV absorbance using an HP diode array detector followed by ESI-MS […] using a Sciex O-Star/Pulsar quadrupole-TOF mass spectrometer operating in either the positive and negative ion modes. […] At acidic pH (e.g. […]), prodrug formation was relatively independent of Drug concentration. However, at pH 5, prodrug formation seemed to be first order (i.e. dependant upon the Drug concentration).

[4] = Super-solvent water effect (maximum water before NSAID precipitates); format: physicochemical
Procedure: Methods. […] These amounts are chosen based upon the solubility of one gram of NSAID and the amount of the single solvent alcohol for saturation. Next, water was added in step-wise manner to determine the maximum amount that can be added before any visible amount of the NSAID precipitated (i.e., the volume of water that can be added and yet remain single phasic).

CCCCCC/C(C=O)=C\c1ccccc1 [HCA, hexylcinnamaldehyde]
stimulation index ([1]; 35% HCA in ISW-AP-01 placebo): 4.6
stimulation index ([1]; 35% HCA in ethanol): 4.4

CC(C)Cc1ccc(C(C)C(=O)O)cc1 (stereo not drawn) [Ibuprofen]
Maximum Drug Concentration in single alcohol: EtOH ([2]; Solubility at 35 C): 50.00
Maximum Drug Concentration in single alcohol: IPA ([2]; Solubility at 35 C): 47.62
Maximum Drug Concentration in single alcohol: PEG ([2]; Solubility at 35 C): 25.00
Maximum Drug Concentration in single alcohol: PG ([2]; Solubility at 35 C): 20.00
Maximum Drug Concentration in single alcohol: EtOH ([2]; Solubility at Room Temperature): 37.04
Maximum Drug Concentration in single alcohol: IPA ([2]; Solubility at Room Temperature): 35.71
Maximum Drug Concentration in single alcohol: PEG ([2]; Solubility at Room Temperature): 22.22
Maximum Drug Concentration in single alcohol: PG ([2]; Solubility at Room Temperature): 15.38
prodrug generation upon storage (HPLC) ([3]; composition of 15% ibuprofen, about 60% ethanol, 3% glycerin, 2% propylene glycol stored for 3 months at 25 C): A new peak (i.e., the prodrug) distinct from the ibuprofen peak was detected
effect of Drug concentration and pH on prodrug generation ([3]; compositions of ibuprofen with ethanol as solvent (FIG. 7)): higher pH (e.g. 5.0) substantially decreases the rate of prodrug formation
rate of prodrug generation ([3]; pH 3.7, composition of 15% ibuprofen, about 60% ethanol, 3% glycerin): approximately 0.05 % per day
rate of prodrug generation ([3]; pH 5, composition of 15% ibuprofen, about 60% ethanol, 3% glycerin): about 0.025 % per day
Super-solvent Effect on water ([4]; Ibuprofen 2 gm, EtOH 1 gm, IPA 1.1 gm): 11.4%
Super-solvent Effect on water ([4]; Ibuprofen 2 gm, PEG 3 gm, EtOH 1 gm): 45.9%
Super-solvent Effect on water ([4]; Ibuprofen 2 gm, PEG 3 gm, IPA 1.1 gm): 55%
Super-solvent Effect on water ([4]; Ibuprofen 2 gm, PG 4 gm, EtOH 1 gm): 65.8%
Super-solvent Effect on water ([4]; Ibuprofen 2 gm, PG 4 gm, IPA 1.1 gm): 65.3%
Super-solvent Effect on water ([4]; Ibuprofen 2 gm, PG 4 gm, PEG 3 gm): 56%
Super-solvent Effect on water ([4]; Ibuprofen 3 gm, PEG 3 gm, EtOH 1 gm, IPA 1.1 gm): 40.4%
Super-solvent Effect on water ([4]; Ibuprofen 3 gm, PG 4 gm, EtOH 1 gm, IPA 1.1 gm): 63.2%
Super-solvent Effect on water ([4]; Ibuprofen 3 gm, PG 4 gm, PEG 3 gm, EtOH 1 gm): 57.5%
Super-solvent Effect on water ([4]; Ibuprofen 3 gm, PG 4 gm, PEG 3 gm, IPA 1.1 gm): 57.2%
